In article PMC4660582, “Cyclic thrombospondin-1 mimetics: grafting of a thrombospondin sequence into circular disulfide-rich frameworks to inhibit endothelial cell migration” (Bioscience Reports, 2015):
Where a SMILES comes first, the peptide text is derived from it. Bridges are numbered along the chain shown (N, C = ends). [ ]: non-standard residue; d: D form.

Legend:
[1] = Stability assay in human serum; type: in vitro ADME; details: initial 300 μM; for remaining at 24 h, 300 μM: male, human, human serum, over a 24-h period, read-out: peptide remained in human serum
Procedure: All peptides were tested on human serum from male AB plasma (Sigma–Aldrich) at an initial concentration of 300 μM. Peptide incubation time points were 0, 2, 4, 8, 16 and 24 h. Samples were prepared according to previously described methods. Briefly, 90 μL of supernatant was taken at each time point and chromatographed on a 0.3 mL/min Phenomenex column using a linear 1%/min gradient of 0–50% solvent B on an analytical reverse-phase HPLC (Agilent). The elution times for all peptides were determined by the serum control at 0 h. The stability of each peptide for each time point was calculated as the height of the serum-treated peptide peak at 215 nm as percentage of the height of the 0-h serum-treated control. Experiments were done in triplicate.

Human red blood cells = assay: Hemolytic assay; type: cell-based; details: peptides 0.01–50 μM; melittin positive control from 20 μM
Procedure: Human red blood cells were used to measure the hemolysis of all peptides, with melittin used as a positive control. Peptides concentrations were 50 μM, 25 μM, 10 μM, 5 μM, 1 μM, 0.5 μM, 0.1 μM and 0.01 μM. Melittin was tested at eight concentrations, with two-fold dilution from a concentration of 20 μM. Sample absorbance was measured at 415 nm using a BioTek PowerWave XS instrument, as described previously. Experiments were done in triplicate.

[2] = test system: matriptase over-expressed PC-3 cell line; set-up: method as in PMID 24696092; details: cited from earlier work
[3] = test system: HT-29 (colon cancer cells); assay: Cell proliferation assay (MTT, 72 h); type: cell-based; details: 72-h period
Procedure: (§1) All cells were maintained using the media conditions described above, and passages 2–10 were used for all cell lines. Cell numbers of 2.5×10^3 cells/well (100 μL) were used for both HUVECs and HMVECs, and 1.5×10^3 cells/well (100 μL) were used for other cell lines in this assay. All cells were allowed to attach for 24 h after plating. Cells were treated with fresh media the next day, before the addition of peptides and then incubated for 72 h. Similar peptide concentrations to those mentioned above (in the cell cytotoxicity section) were used. 0.1% (v/v) Triton X-100 (10 μL) was used as a positive control. After 72 h of incubation, MTT and DMSO were added and analysed using the same method as described above.

[4] = test system: PC3 cells (prostate cancer cells); assay: Cell proliferation assay (MTT, 72 h); type: cell-based; details: PC-3; 72-h period
Procedure: as §1

HUVECs = test system: HUVECs; set-up: method as in PMID 15716381; details: at 16 nM; cited from earlier work
HMVECs = test system: HMVECs; set-up: method as in PMID 15716381; details: at 5 nM; cited from earlier work

## CC[C@@H](C)[C@H]1NC(=O)[C@H](C(C)C)NC(=O)CNC(=O)[C@@H]2CSSC[C@@H]3NC(=O)[C@H](CC(=O)O)NC(=O)[C@H](CO)NC(=O)[C@H](CC(=O)O)NC(=O)[C@H](CCCNC(=N)N)NC(=O)[C@H](CCCNC(=N)N)NC(=O)[C@@H]4CSSC[C@H](NC(=O)[C@H]([C@@H](C)CC)NC(=O)[C@H](CSSC[C@H](NC(=O)[C@H](CCCNC(=N)N)NC(=O)[C@H]([C@@H](C)CC)NC(=O)[C@H](CCCNC(=N)N)NC(=O)[C@H]([C@@H](C)O)NC1=O)C(=O)N1CCC[C@H]1C(=O)N[C@@H](CCCCN)C(=O)N[C@@H]([C@@H](C)CC)C(=O)N[C@@H](CC(C)C)C(=O)N[C@@H](CCCCN)C(=O)N[C@@H](CCCCN)C(=O)N4)NC(=O)[C@H](C)NC(=O)CNC(=O)[C@@H]1CCCN1C3=O)C(=O)N[C@@H](CCCNC(=N)N)C(=O)NCC(=O)N[C@@H](CC(N)=O)C(=O)NCC(=O)N[C@@H](Cc1ccc(O)cc1)C(=O)N2 [MCo-TSP-1] (cyclo(ACICRGNGYCGV[dI]TRIRCPKILKKCRRDSDCPG); disulfide 2-18, 4-25, 10-31)
[1]
  remaining at 24 h, 300 μM: > 50%

## CC[C@@H](C)[C@H]1NC(=O)[C@H](C(C)C)NC(=O)CNC(=O)[C@@H]2CSSC[C@H](NC(=O)[C@H](CCCNC(=N)N)NC(=O)[C@H]([C@@H](C)CC)NC(=O)[C@H](CCCNC(=N)N)NC(=O)[C@H]([C@@H](C)O)NC1=O)C(=O)N[C@@H]([C@@H](C)O)C(=O)N[C@@H](CCCCN)C(=O)N[C@@H](CO)C(=O)N[C@@H]([C@@H](C)CC)C(=O)N1CCC[C@H]1C(=O)N1CCC[C@H]1C(=O)N[C@@H]([C@@H](C)CC)C(=O)N2 [SFTI-TSP-1, CTKSIPPICGViTRIR]
[1]
  remaining at 24 h, 300 μM: > 50%

## CC[C@@H](C)[C@@H](NC(=O)[C@@H](NC(=O)CN)C(C)C)C(=O)N[C@H](C(=O)N[C@@H](CCCNC(=N)N)C(=O)N[C@H](C(=O)N[C@@H](CCCNC(=N)N)C(=O)O)[C@@H](C)CC)[C@@H](C)O [linear TSP-1 heptapeptide, GViTRIR] (H-GV[dI]TRIR-OH)
[1]
  time within which degraded in human serum: ≤ 24 h

## CC[C@H](C)[C@H](NC(=O)CN)C(=O)NCC(=O)N[C@@H](C)C(=O)N[C@H](C(=O)N[C@@H](CC(C)C)C(=O)N[C@@H](CCCCN)C(=O)N[C@H](C(=O)N[C@@H](CC(C)C)C(=O)N[C@H](C(=O)N[C@H](C(=O)NCC(=O)N[C@@H](CC(C)C)C(=O)N1CCC[C@H]1C(=O)N[C@@H](C)C(=O)N[C@@H](CC(C)C)C(=O)N[C@H](C(=O)N[C@@H](CO)C(=O)N[C@@H](Cc1c[nH]c2ccccc12)C(=O)N[C@H](C(=O)N[C@@H](CCCCN)C(=O)N[C@@H](CCCNC(=N)N)C(=O)N[C@@H](CCCCN)C(=O)N[C@@H](CCCNC(=N)N)C(=O)N[C@@H](CCC(N)=O)C(=O)N[C@@H](CCC(N)=O)C(N)=O)[C@@H](C)CC)[C@@H](C)CC)[C@@H](C)O)[C@@H](C)O)C(C)C)C(C)C [melittin]
Human red blood cells
  haemolysis of human red blood cells: highly haemolytic

## Momordica cochinchinensis trypsin inhibitor-II [MCoTI-II]
[2]
  effect on invasive cell migration: inhibited invasive cell migration
[3]
  anti-proliferative effect: minor anti-proliferative effects
[4]
  anti-proliferative effect: minor anti-proliferative effects

## sunflower trypsin inhibitor-1 [SFTI-1]
[3]
  anti-proliferative effect: minor anti-proliferative effects
[4]
  anti-proliferative effect: minor anti-proliferative effects

## thrombospondin-1 type-1 repeats [TSR]
HUVECs
  inhibition on HUVECs (migration): 60%
HMVECs
  inhibition on HMVECs (migration): 35%
